According to patent US4849410A, “Pseudopterosin and synthetic derivatives thereof” (The Regents of the University of California, priority 1987, dated 1989):

Columns and labels:
[1] = system: phenyl-p-benzoquinone (PQ) writhing; assay: Phenyl-p-benzoquinone Assay for Analgesia; format: in vivo, mouse; settings: for % Inhibition (writhing): s.q.
[2] = system: Fertilized Sea Urchin Egg; assay: Fertilized Sea Urchin Egg Inhibition of Cleavage Assay for Anti-proliferation; format: cell-based; settings: doses as low as
Protocol: c. Fertilized Sea Urchin Egg Inhibition of Cleavage Assay for Anti-proliferation
Sea urchins are induced to spawn by injection of 0.5M KCl into the coelomic cavity. Test compound is added to a 1% slurry of eggs within 5 minutes following fertilization and incubated until the completion of the division in control slurry, 90-120 minutes. Inhibition is measured as the present of undivided cells in the slurry at the end of this incubation.
(§1) The vheicle or carrier for the compounds used in the inflammatory and analgesic assays was as follows; For the mouse ear inflammatory assay, the vehicle was acetone. Controls received 25 microliters of acetone. Test compounds were applied to the experimental animals in 25 microliter volumes. For the sperm motility and fertilized sea urchin egg assays, the compounds were dissolved in 10 microliters undenatured ethanol.

B16 melanoma = assay: Activity in mice bearing ip B16 melanoma; format: in vivo, female B6D2F1 mice
Protocol: (§2) Compound I was also evaluated for activity against solid tumors as follows:
(§3) One-half ml of a 10 percent (v:v) brei of tumor cells prepared from solid B16 melanoma or M5076 reticulum cell sarcoma was implanted ip in female B6D2F1 mice which were randomized to treatment groups of 8 animals each. Treatment was initiated 24 hours after tumer inoculation and was continued daily for 10 days (cisplatin was administered q4Dx4 on Days 1, 5, 9 and 13). Mice were monitored daily for 60 days, and the median day of death was determined compared to three groups of untreated controls to provide percent increase in lifespan (ILS). ILS values of greater than or equal to 50 percent represent biologically significant antitumor effects. Cisplatin was curative in M5076 with 6/8 tumor-free survivors on Day 60 at the top dose level.

sea urchin sperm = assay: Sperm Motility Assay; format: cell-based; settings: 16 microgram/ml (10^-5 m)
Protocol: Male sea urchins are induced to spawn by injection of 0.5M KCl into the coelomic cavity. Sperm is collected via a pasteur pipette and stored in a test tube on ice. One drop of undiluted sperm is added to 25 ml of filtered fresh seawater, then 1.0 ml volumes of this solution are immediately added to test tubes containing 10 microliter test solution. Aliquots of sperm from each tube are observed microscopically for motility at a time two minutes after addition of sperm to test solution.
as §1

[3] = system: highly metastatic subline (F10) of B16 melanoma; assay: Antiproliferative effects on tumor cells growing in tissue culture; format: cell-based; settings: continuous exposure; read-out: concentration that inhibited proliferation by 50 percent
Protocol: Compound I was also tested for antiproliferative effects on tumor cells growing in tissue culture.

[4] = system: M5076 reticulum cell sarcoma; assay: Activity in mice bearing ip M5076 reticulum cell sarcoma; format: in vivo, female B6D2F1 mice
Protocol: as §2, §3

[5] = system: Intraperitoneally Administered Phenylquinone; assay: Phenylquinone Assay for Analgesia (writhing); format: in vivo, mice; settings: for Mean No. Responses ± S.E.M.: phenylquinone 2.0 mg/kg
Protocol: d. Phenylquinone Assay for Analgesia
Test compound is injected subcutaneously into mice. After 30 minutes, phenylquinone is injected intraperitoneally to cause pain as indicated by writhing.
Test compound was administered subcutaneously in sesame oil at concentrations up to 5 mg per ml depending on the test compound dosage protocol. The highest dose was 50 mg per Kg. Control groups received sesame oil subcutaneously.

[6] = system: Arachidonic Acid (A.A.) Induced Topical Inflammation of the Mouse Ear; assay: Arachidonic acid induced topical inflammation of the mouse ear; format: in vivo; settings: A.A. 25.0 ug; 50.0 ug/ear
[7] = Toxicity of single intraperitoneal doses; format: in vivo, female B6D2F1 mice
Protocol: The toxicity of single intraperitoneal (ip) doses of Compound I in female B6D2F1 mice were evaluated. Doses of up to 150 mg/kg produced no lethality but signs of CNS toxicity were evident at doses greater than or equal to 77 mg/kg.

[8] = Side effects and mortality, intraperitoneal administration to mice; format: in vivo; settings: for Mortality: on day after administration
Protocol: Doses up to 50 mg/kg administered intraperitoneally to mice have no effect. […] Mortality at 100 mg/kg=2/10 on day after administration, at 200 mg/kg=2/4 also on day after administration.

[9] = system: PMA induced swelling of the mouse ear; assay: Anti-Inflammatory Assay (systemic administration); format: in vivo, male Swiss Webster mice
Protocol: Anti-Inflammatory Assay (systemic administration)
2 ug PMA was applied in 25 ul of acetone to the inner surface of the left ear of male Swiss Webster mice (4 to 6 weeks old), the right ear is treated with acetone only. […] 200 minutes after PMA treatment, the mice were killed by cervical dislocation and both ears were cut off, punched with a #4 cork borer and weighed. The swelling induced by PMA was calculated as the increase in the weight of the left ear minus the right ear. The percent inhibition of edema was calculated as control-drug/control×100. […] ED50 values were estimated by the method of Litchfield and Wilcoxon.

[10] = 100 mg/kg and above intraperitoneally

CC(C)=C[C@H]1C[C@H](C)[C@H]2CC[C@H](C)c3c(O[C@@H]4OC[C@@H](O)[C@H](O)[C@H]4O)c(O)c(C)c1c32 [Compound I, pseudopterosin A]
ED50 ([1]; 50% inhibition of writhing, n = 10 mice/dose): 4.22 mg/kg | % Inhibition (writhing) ([1]; 2.0 mg/kg): 29% | % Inhibition (writhing) ([1]; 3.5 mg/kg): 46% | % Inhibition (writhing) ([1]; 5.0 mg/kg): 38% | % Inhibition (writhing) ([1]; 7.5 mg/kg): 79% | % Inhibition (writhing) ([1]; 10 mg/kg): 73% | % Inhibition (writhing) ([1]; 20 mg/kg): 96% | dose that totally inhibits cell division [2]: 7 µM | Increase to Lifespan (B16 melanoma; 6.48 mg/kg ip): -2% | Median Survival Time (B16 melanoma; 6.48 mg/kg ip): 21.5 days | Weight Change on Day 9 (B16 melanoma; 6.48 mg/kg ip): +1.2 gm | Increase to Lifespan (B16 melanoma; 10.8 mg/kg ip): -7% | Median Survival Time (B16 melanoma; 10.8 mg/kg ip): 20.5 days | Weight Change on Day 9 (B16 melanoma; 10.8 mg/kg ip): +1.0 gm | Increase to Lifespan (B16 melanoma; 18 mg/kg ip): -2% | Median Survival Time (B16 melanoma; 18 mg/kg ip): 21.5 days | Weight Change on Day 9 (B16 melanoma; 18 mg/kg ip): +0.9 gm | Increase to Lifespan (B16 melanoma; 30 mg/kg ip): 11% | Median Survival Time (B16 melanoma; 30 mg/kg ip): 24.5 days | Weight Change on Day 9 (B16 melanoma; 30 mg/kg ip): +0.5 gm | Increase to Lifespan (B16 melanoma; 50 mg/kg ip): -4% | Median Survival Time (B16 melanoma; 50 mg/kg ip): 21 days | Weight Change on Day 9 (B16 melanoma; 50 mg/kg ip): -0.4 gm | antitumor activity (B16 melanoma; B16 melanoma): did not demonstrate significant antitumor activity | inhibition of sperm motility (sea urchin sperm): totally inhibits | IC50 [3]: 42 µM | Increase to Lifespan ([4]; 8.64 mg/kg ip): -2% | Median Survival Time ([4]; 8.64 mg/kg ip): 20.5 days | Weight Change on Day 9 ([4]; 8.64 mg/kg ip): +0.1 gm | Increase to Lifespan ([4]; 14.4 mg/kg ip): 0% | Median Survival Time ([4]; 14.4 mg/kg ip): 21 days | Weight Change on Day 9 ([4]; 14.4 mg/kg ip): +0.2 gm | Increase to Lifespan ([4]; 24 mg/kg ip): 0% | Median Survival Time ([4]; 24 mg/kg ip): 21 days | Weight Change on Day 9 ([4]; 24 mg/kg ip): +0.6 gm | Increase to Lifespan ([4]; 40 mg/kg ip): -2% | Median Survival Time ([4]; 40 mg/kg ip): 20.5 days | Weight Change on Day 9 ([4]; 40 mg/kg ip): -1.1 gm | Increase to Lifespan ([4]; 66.7 mg/kg ip): 2% | Median Survival Time ([4]; 66.7 mg/kg ip): 21.5 days | Weight Change on Day 9 ([4]; 66.7 mg/kg ip): -2.9 gm | antitumor activity ([4]; M5076 reticulum cell sarcoma): did not demonstrate significant antitumor activity | Mean No. Responses ± S.E.M. ([5]; 3.1 mg/kg): 8.55 ± 1.38 | Mean No. Responses ± S.E.M. ([5]; 6.3 mg/kg): 5.87 ± 1.24 | Mean No. Responses ± S.E.M. ([5]; 12.5 mg/kg): 5.87 ± 0.77 | Mean No. Responses ± S.E.M. ([5]; 25.0 mg/kg): 1.80 ± 1.31 | Mean No. Responses ± S.E.M. ([5]; 50.0 mg/kg): 0 | analgesia against chemically induced pain ([5]; mouse, in vivo): provides analgesia | Analgesic Activity ([5]; summary): Active | Ear Weight Mean ± S.E.M. [6]: 13.33 ± 0.38 mg | dose at which signs of CNS toxicity were evident ([7]; single ip dose): greater than or equal to 77 mg/kg | Symptoms of CNS toxicity ([7]; single ip doses >= 77 mg/kg): hypersensitivity to external stimuli and shivering | lethality ([7]; single ip doses of up to 150 mg/kg): no lethality | return to normal activity [8, 10]: ≤ 30 min | side effects [8, 10]: mild excitation and writhing in some animals | Mortality ([8]; 100 mg/kg): 2/10 | Mortality ([8]; 200 mg/kg): 2/4 | side effects ([8]; up to 50 mg/kg intraperitoneally): no effect | % Inhibition (edema) ([9]; 6.25 mg/kg): 0% | % Inhibition (edema) ([9]; 12.5 mg/kg): 24.4% | % Inhibition (edema) ([9]; 25 mg/kg): 43.8% | % Inhibition (edema) ([9]; 50 mg/kg): 46.5% | % Inhibition (edema) ([9]; 100 mg/kg): 90.4%
